Here are results for 20 molecules from patent US20100087406A1, “INDUCTION OF INNATE IMMUNITY BY VITAMIN D3 AND ITS ANALOGS” (CEDARS-SINAI MEDICAL CENTER, priority 2004, published 2010).

“Also recorded” adds a separate entry of the source. Where two headings read alike, the source gives them in different places.

The test system of one experiment is HNP3 (α-defensin). As to the kind of experiment: Induction of primary granule gene HNP3 in U937 cells (RT-PCR). The settings on record: U937, 1×10^−7 M, 24 h.
The test system of a further experiment is LTF (lactoferrin). As to the kind of experiment: Induction of secondary granule gene LTF in U937 cells (RT-PCR). Particulars: U937, 1×10^−7 M, 24 h.
Experiment [1] deals with CAMP. Put plainly: Induction of CAMP mRNA in keratinocyte cell line HaCat (QRT-PCR). The experiment is classed as cell-based, human. An excerpt:
The X-axis represents (CAMP(ng)/18S(ng)), +/−SD.

For experiment [2], the system named is CD11b. Put plainly: Differentiation marker CD11b mRNA in U937 cells (Northern blot). Particulars: for macrophage-like differentiation (induction of CD11b): U937, 1,25[OH]2D3 1×10^−7 M or TPA 5 ng/ml, 1, 3 or 5 days.
Excerpt: Total RNA at each time point was isolated and electrophoresed, then transferred to a charged membrane for Northern analysis.
Total RNA was extracted and analyzed by Northern blot.
Experiment [3] deals with CAMP. As to the kind of experiment: Induction of CAMP mRNA expression in NB4 cells (Northern blot).
Experiment [4] concerns CRAMP. As to the kind of experiment: CRAMP in cultured bone marrow cells of C/EBPε-deficient or wild type mice (QRT-PCR). Format: cell-based. Here is the method: Primers against murine CAMP/CRAMP (forward, SEQ ID NO.: 7 and reverse, SEQ ID NO.: 8) (Table 3) were used at 200 nM per reaction.
The relative fold change between samples was determined using data normalized for 18S expression. Samples were analyzed in triplicate.

Experiment [5] deals with CAMP. Put plainly: Induction of CAMP mRNA expression in HL60 cells (Northern blot).
Experiment [6] has as its system CAMP. Put plainly: Induction of CAMP mRNA expression in U937 cells (QRT-PCR, RT-PCR, Northern blot). Format: cell-based, human. Particulars: for induction of CAMP (hCAP18) mRNA expression by Vitamin D3 analogs: U937, 1×10^−7 M, 12 and 24 hours.
The next experiment deals with hCAP18. Particulars: colon epithelial cell lines; cited from earlier work.
Experiment [7] concerns CD11b. Put plainly: Differentiation marker CD11b mRNA in HL60 cells (Northern blot). Format: cell-based, human. The settings on record: HL-60; 1,25[OH]2D3 1×10^−7 M or TPA 5 ng/ml; 1, 3 or 5 days.
In experiment [8] the test system is CRAMP. As to the kind of experiment: CRAMP expression in bone marrow of treated BNX mice (Northern blot). Particulars: intraperitoneal, 0.05 μg/mouse every two days for 6 weeks.
The test system of experiment [9] is CAMP. Particulars: cultured keratinocytes or composite keratinocyte grafts; cited from earlier work.
For experiment [10], the system named is CAMP. The settings on record: primary human keratinocytes; cited from earlier work.
The mark [11] stands for this setting: U937, initial screen, 24 h, QRT-PCR and Northern blot.

Take `C=C1/C(=C\C=C2/CCC[C@]3(C)[C@@H]([C@H](C)CCCC(C)(C)O)CC[C@@H]23)C[C@@H](O)C[C@@H]1O` [1,25(OH)2D3, 1,25-dihydroxyvitamin D3]: the “induction of HNP3” value with HNP3 (α-defensin) was “No induction of these genes was observed”. For the same molecule, in the experiment with LTF (lactoferrin), the “induction of LTF” value is recorded as “No induction of these genes was observed”. The “induction of CAMP mRNA compared with myeloid cells” value in the experiment with CAMP [1] was “not as robust as that observed in the myeloid cells; also recorded: less striking”. Besides, in the experiment with CAMP [1] (1×10^−7 M, 24 hours, QRT-PCR), the “induction of CAMP mRNA” value is “Induction of CAMP mRNA was observed”. The “time of induction of the differentiation marker CD11b” value in the experiment with CD11b [2] (U937, 1×10^−7 M, time course 1-24 hours) was 12 h. For the same molecule, the “macrophage-like differentiation (induction of CD11b)” value in the experiment on CD11b [2] is given as “promoted macrophage-like differentiation”. Moreover, the “induction of CAMP expression” value was “induction was observed; also recorded: induced expression of CAMP was observed” with CAMP [3] (NB4, 1×10^−6 M to 1×10^−9 M, 24 h, Northern blot (FIG. 3)) and “Moderate induction” in the experiment on CAMP [3] (NB4, 1×10^−6 M to 1×10^−9 M, 24 h, Northern blot (FIG. 3), listed as Vitamin D3). Further, the “induction of CRAMP” value in the experiment with CRAMP [4] (C/EBPε-deficient or wild type bone marrow cells cultured in vitro, 24 h) is listed as “CRAMP induction was not observed”. Also, the “decrease of CRAMP” value in the experiment with CRAMP [4] (bone marrow cells, 24 h post-treatment (FIG. 14B)) is listed as “approximately 2 fold”.
For the molecule `CC1=C(/C=C/C(C)=C/C=C/C(C)=C/C(=O)O)C(C)(C)CCC1` [ATRA, all trans retinoic acid], the “induction of CAMP expression” value with CAMP [5] (HL60, 5×10^−7 M, 1-5 days) is “No induction was observed”; in the experiment with CAMP [6] (U937, 5×10^−7 M, 1-5 days), “No induction was observed”; in the experiment with CAMP [6] (setting [11]), “only 1,25(OH)2D3 induced CAMP expression significantly”; in the experiment on CAMP [3] (NB4, 5×10^−7 M, 1-5 days), “No induction was observed”.
Turning to `C[C@@H]1C[C@@H]([C@H](O)CC2CC(=O)NC(=O)C2)C(=O)[C@@H](C)C1` [CHX, cyclohexamide], in the experiment with CAMP [6] (U937, data not shown), the “induction of CAMP gene expression by CHX alone” value is given as “did not induce CAMP gene expression”.
As for `C[C@]12CCC(=O)C[C@@H]1CC[C@@H]1[C@@H]2CC[C@]2(C)[C@@H](O)CC[C@@H]12` [DHT, dihydrotestosterone], in the experiment on CAMP [6], the “induction of CAMP expression” value was “only 1,25(OH)2D3 induced CAMP expression significantly”.
Regarding `C=C1/C(=C\C=C2/CCC[C@]3(C)[C@@H]([C@H](C)/C=C/C=C/C(O)(CC)CC)CC[C@@H]23)C[C@@H](O)C[C@@H]1O` [EB1089, 1,25-dihydroxy-22,24-diene, 24,26,27-trihomo], the “induction of CAMP (hCAP18) mRNA expression by Vitamin D3 analogs” value (“induction of CAMP … by Vitamin D3 analogs” for short) was “strongly induced CAMP gene expression” in the experiment with CAMP [6] (Northern blot) and “Induction of hCAP18 mRNA expression was observed; also recorded: Induction of CAMP mRNA expression was observed” in the experiment on CAMP [6] (Northern blot, listed as EB 1089).
`C=C1/C(=C\C=C2/CCC[C@]3(C)[C@@H]([C@@H](C)OCCCC(O)(CC)CC)CC[C@@H]23)C[C@@H](O)C[C@@H]1O` [KH1060, 20-epi-22oxa-24a,26a,27a-tri-homo-1,25(OH)2D3]: the “induction of CAMP … by Vitamin D3 analogs” value with CAMP [6] (Northern blot) is “strongly induced CAMP gene expression; also recorded: Induction of hCAP18 mRNA expression was observed; also recorded: Induction of CAMP mRNA expression was observed”.
With `CCCCCCCCCCCCCC(=O)O[C@@H]1[C@@H](C)[C@@]2(O)[C@@H](C=C(CO)C[C@]3(O)C(=O)C(C)=C[C@@H]23)[C@@H]2C(C)(C)[C@]12OC(C)=O` [PMA], the “induction of hCAP18 expression” value in the experiment on hCAP18 is “not by pro-inflammatory mediators”.
As for `CCCCCCCCCCCCCC(=O)O[C@@H]1[C@@H](C)[C@@]2(O)[C@@H](C=C(CO)C[C@]3(O)C(=O)C(C)=C[C@@H]23)[C@@H]2C(C)(C)[C@]12OC(C)=O` [TPA], the “induction of CAMP mRNA” value in the experiment with CAMP [5] (HL-60, 1,25[OH]2D3 1×10^−7 M or TPA 5 ng/ml, 1, 3 or 5 days, Northern blot) is recorded as “not TPA”; with CAMP [6] (U937, 1,25[OH]2D3 1×10^−7 M or TPA 5 ng/ml, 1, 3 or 5 days, Northern blot), “not TPA”. In addition, the “induction of CAMP expression” value in the experiment on CAMP [6] (setting [11]) was “only 1,25(OH)2D3 induced CAMP expression significantly”. For the same molecule, the “macrophage-like differentiation (induction of CD11b)” value in the experiment on CD11b [7] and with CD11b [2] was “promoted macrophage-like differentiation” throughout.
Regarding `C=C1/C(=C\C=C2/CCC[C@]3(C)[C@@H]([C@H](C)/C=C/C[C@@](C)(O)CO)CC[C@@H]23)C[C@@H](O)C[C@@H]1O` [compound I, 1,25R,26-(OH)3-22-ene-D3], the “induction of CAMP … by Vitamin D3 analogs” value in the experiment with CAMP [6] (Northern blot) is listed as “strongly induced CAMP gene expression; also recorded: Induction of hCAP18 mRNA expression was observed; also recorded: Induction of CAMP mRNA expression was observed”. In addition, the “CRAMP expression in bone marrow compared with a vehicle-treated mouse” value in the experiment on CRAMP [8] is recorded as “did not significantly alter CRAMP expression”.
Regarding GM-CSF: growth factor, the “induction of CAMP expression” value with CAMP [6] (setting [11]) was “only 1,25(OH)2D3 induced CAMP expression significantly”.
As to IL-1β: proinflammatory cytokine, the “induction of CAMP expression” value in the experiment on CAMP [9] is “induced CAMP expression”.
Regarding IL-6: cytokine, the “induction of CAMP expression” value in the experiment with CAMP [6] (setting [11]) is reported as “only 1,25(OH)2D3 induced CAMP expression significantly”; in the experiment on CAMP [9], “did not”. Also, the “induction of hCAP18 expression” value with hCAP18 is given as “not by pro-inflammatory mediators”.
Take IL-8: cytokine: the “induction of CAMP expression” value with CAMP [9] is reported as “did not”.
INFγ: inflammatory factor: the “induction of CAMP expression” value in the experiment with CAMP [6] (setting [11]) was “only 1,25(OH)2D3 induced CAMP expression significantly”; with CAMP [9], “did not”. Moreover, the “induction of hCAP18 expression” value in the experiment with hCAP18 was “not by pro-inflammatory mediators”.
As for TNFα, the “induction of CAMP expression” value is given as “only 1,25(OH)2D3 induced CAMP expression significantly” with CAMP [6] (setting [11]) and “did not” with CAMP [9]. Besides, in the experiment on hCAP18, the “induction of hCAP18 expression” value is reported as “not by pro-inflammatory mediators”.
On to “insulin-like growth factor (IGF)-1: growth factor that is important in wound healing”, for which, in the experiment with CAMP [10], the “induction of CAMP mRNA and protein” value was “induce both the CAMP mRNA and protein”.

B1: I1-4: cytokine, probably IL-4 (protein, UniProt P05112 25-153, looked up)
Interleukin-4: HKCDITLQEIIKTLNSLTEQKTLCTELTVTDIFAASKNTTEKETFCRAATVLRQFYSHHEKDTRCLGATAQQFHRHKQLIRFLKRLDRNLWGLAGLNSCPVKEANQSTLENFLERLKTIMREKYSKCSS
As to B1, the “induction of CAMP expression” value in the experiment with CAMP [9] was “did not”.

B2: IL-1α: pro-inflammatory mediator (protein, UniProt P01583 113-271, looked up)
Interleukin-1 alpha: SAPFSFLSNVKYNFMRIIKYEFILNDALNQSIIRANDQYLTAAALHNLDEAVKFDMGAYKSSKDDAKITVILRISKTQLYVTAQDEDQPVLLKEMPEIPKTITGSETNLLFFWETHGTKNYFTSVAHPNLFIATKQDYWVCLAGGPPSITDFQILENQA
Take B2: the “induction of hCAP18 expression” value in the experiment with hCAP18 is on record as “not by pro-inflammatory mediators”.

B3: IL-10: cytokine (protein, UniProt P22301 19-178, looked up)
Interleukin-10: SPGQGTQSENSCTHFPGNLPNMLRDLRDAFSRVKTFFQMKDQLDNLLLKESLLEDFKGYLGCQALSEMIQFYLEEVMPQAENQDPDIKAHVNSLGENLKTLRLRLRRCHRFLPCENKSKAVEQVKNAFNKLQEKGIYKAMSEFDIFINYIEAYMTMKIRN
B3: the “induction of CAMP expression” value in the experiment with CAMP [9] was “did not”.

B4: G-CSF: growth factor (protein, UniProt P09919 31-207, looked up)
Granulocyte …: TPLGPASSLPQSFLLKCLEQVRKIQGDGAALQEKLVSECATYKLCHPEELVLLGHSLGIPWAPLSSCPSQALQLAGCLSQLHSGLFLYQGLLQALEGISPELGPTLDTLQLDVADFATTIWQQMEELGMAPALQPTQGAMPAFASAFQRRAGGVLVASHLQSFLEVSYRVLRHLAQP
As for B4, the “induction of CAMP expression” value in the experiment with CAMP [6] (setting [11]) is listed as “only 1,25(OH)2D3 induced CAMP expression significantly”.
